In PubChem BioAssay (NCI):
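Assay format: 96-well plates, 48-hour exposure. Definition used: TGI = concentration required for complete inhibition of growth.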

What was measured:
Assay in all cases: DTP human tumour cell line panel, 48 h
[1] = system: KM12 colon
[2] = system: CAKI-1 renal
[3] = system: TK-10 renal
[4] = system: COLO 205 colon
[5] = system: RPMI-8226 leukemia
[6] = system: SK-OV-3 ovarian
[7] = system: OVCAR-4 ovarian
[8] = system: BT-549 breast
[9] = system: MDA-N
[10] = system: NCI-H226 lung
[11] = system: MDA-MB-435
[12] = system: HOP-92 NSCLC
[13] = system: SN12C renal
[14] = system: NCI-H460 lung
[15] = system: ACHN renal
[16] = system: A549 NSCLC
[17] = system: SF-268 CNS
[18] = system: MCF7 breast
[19] = system: SR leukemia
[20] = system: MOLT-4 leukemia
[21] = system: 786-0 renal
[22] = system: SK-MEL-2 melanoma
[23] = system: HCT-15 colon
[24] = system: MALME-3M melanoma
[25] = system: HT29 colon
[26] = system: NCI-H23 lung
[27] = system: MDA-MB-231 breast
[28] = system: SK-MEL-5 melanoma
[29] = system: EKVX NSCLC
[30] = system: DU-145 prostate
[31] = system: A498 renal
[32] = system: PC-3 prostate
[33] = system: LOX IMVI melanoma
[34] = system: SF-295 CNS
[35] = system: IGROV1 ovarian
[36] = system: OVCAR-8 ovarian
[37] = system: OVCAR-5 ovarian
[38] = system: SF-539 CNS
[39] = system: SNB-19 CNS
[40] = system: SK-MEL-28 melanoma
[41] = system: UO-31 renal
[42] = system: HCT-116 colon
[43] = system: HS 578T breast
[44] = system: UACC-62 melanoma
[45] = system: CCRF-CEM leukemia
[46] = system: HCC-2998 colon
[47] = system: T-47D breast
[48] = system: NCI/ADR-RES ovarian
[49] = system: K-562 leukemia
[50] = system: U251 CNS
[51] = system: SW-620 colon
[52] = system: OVCAR-3 ovarian
[53] = system: M14 melanoma
[54] = system: HL-60(TB) leukemia
[55] = system: UACC-257 melanoma
[56] = system: SNB-75 CNS
[57] = system: NCI-H522 lung
[58] = system: RXF 393 renal
[59] = system: HOP-62 NSCLC

Clc1cc(Cl)nc(Nc2ccc3c(c2)CCC3)n1
TGI [1]: 59.1 µM | TGI [2]: 75.7 µM | TGI [3]: > 100 µM | TGI [4]: 46.9 µM | TGI [5]: 42 µM | TGI [6]: > 100 µM | TGI [7]: > 100 µM | TGI [8]: > 100 µM | TGI [9]: > 100 µM | TGI [10]: > 100 µM | TGI [11]: > 100 µM | TGI [12]: > 100 µM | TGI [13]: > 100 µM | TGI [14]: > 100 µM | TGI [15]: > 100 µM | TGI [16]: > 100 µM | TGI [17]: > 100 µM | TGI [18]: 70.8 µM | TGI [19]: 77.6 µM | TGI [20]: 69.6 µM | TGI [21]: > 100 µM | TGI [22]: > 100 µM | TGI [23]: > 100 µM | TGI [24]: 93.3 µM | TGI [25]: 51.5 µM | TGI [26]: > 100 µM | TGI [27]: > 100 µM | TGI [28]: 57.5 µM | TGI [29]: 71.5 µM | TGI [30]: > 100 µM | TGI [31]: > 100 µM | TGI [32]: > 100 µM | TGI [33]: 91.1 µM | TGI [34]: > 100 µM | TGI [35]: 72.3 µM | TGI [36]: > 100 µM | TGI [37]: > 100 µM | TGI [38]: > 100 µM | TGI [39]: > 100 µM | TGI [40]: > 100 µM | TGI [41]: > 100 µM | TGI [42]: > 100 µM | TGI [43]: > 100 µM | TGI [44]: > 100 µM | TGI [45]: 72.8 µM | TGI [46]: 30.4 µM | TGI [47]: > 100 µM | TGI [48]: > 100 µM | TGI [49]: 46 µM | TGI [50]: > 100 µM | TGI [51]: > 100 µM | TGI [52]: > 100 µM | TGI [53]: > 100 µM | TGI [54]: 73 µM | TGI [55]: > 100 µM

CC1=NN(c2ccccc2)C(=O)/C1=C\c1c(C)[nH]n(-c2ccccc2)c1=O
TGI [1]: > 100 µM | TGI [2]: > 100 µM | TGI [3]: > 100 µM | TGI [4]: > 100 µM | TGI [5]: 83.3 µM | TGI [6]: > 100 µM | TGI [7]: > 100 µM | TGI [56]: > 100 µM | TGI [8]: > 100 µM | TGI [9]: > 100 µM | TGI [10]: > 100 µM | TGI [11]: > 100 µM | TGI [12]: 90.5 µM | TGI [13]: > 100 µM | TGI [14]: > 100 µM | TGI [15]: > 100 µM | TGI [16]: > 100 µM | TGI [17]: > 100 µM | TGI [57]: > 100 µM | TGI [18]: > 100 µM | TGI [19]: > 100 µM | TGI [20]: > 100 µM | TGI [21]: > 100 µM | TGI [22]: > 100 µM | TGI [23]: > 100 µM | TGI [24]: > 100 µM | TGI [25]: > 100 µM | TGI [58]: > 100 µM | TGI [26]: > 100 µM | TGI [27]: > 100 µM | TGI [28]: > 100 µM | TGI [29]: > 100 µM | TGI [30]: > 100 µM | TGI [31]: > 100 µM | TGI [32]: > 100 µM | TGI [34]: > 100 µM | TGI [35]: > 100 µM | TGI [59]: > 100 µM | TGI [36]: > 100 µM | TGI [37]: > 100 µM | TGI [38]: > 100 µM | TGI [39]: > 100 µM | TGI [40]: > 100 µM | TGI [41]: > 100 µM | TGI [42]: > 100 µM | TGI [43]: > 100 µM | TGI [44]: > 100 µM | TGI [45]: > 100 µM | TGI [46]: > 100 µM | TGI [47]: > 100 µM | TGI [48]: > 100 µM | TGI [49]: > 100 µM | TGI [50]: > 100 µM | TGI [51]: > 100 µM | TGI [52]: > 100 µM | TGI [53]: > 100 µM | TGI [54]: > 100 µM | TGI [55]: > 100 µM
